From patent US20250352588A1, “EFFECT OF A PROBIOTIC COMPOSITION ON VAGINAL LACTOBACILLUS SPECIES” (INTERNATIONAL N&H DENMARK APS, priority 2021, published 2025)

Assays:
[1] = system: Lactobacillus crispatus 13331; experiment: Growth experiments with probiotic supernatant and biogenic amines (OD600, 44 h); type: cell-based; settings: highest physiological concentration (cadaverine 4990 μM, putrescine 3179 μM); putrescine effect from 0.5 h to end of experiment
Method: The growth experiment was performed as described above but with some modifications. The Lactobacillus crispatus strain was cultured in SVF media (control), and in the SVF media containing one of the biogenic amines, and in the SVF media containing one of the biogenic amines and probiotic supernatant. The effect of all five biogenic amines was investigated independently on the pure culture of Lactobacillus crispatus 13331. Each test condition was investigated in triplicates in the honey-comb plate. […] The growth study was performed in SVF pH 4.5 using Bioscreen© C system measuring the optical density at 600 nm every 30 min for 44 h at 37° C. […] Growth experiments were performed in three independent biological replicates.

L. crispatus strains = settings: Borgogna et al., 2021; cited from earlier work

| Structure (SMILES) | growth in the presence of biogenic amine alone vs strain alone (control) [1] | effect on growth of L. crispatus strains (L. crispatus strains) |
| --- | --- | --- |
| NCCCCCN [cadaverine] | no statistically significant difference in growth |  |
| NCCCCN [putrescine] | significant reduction in the growth | negatively affect the growth |
